The record followed here is patent US20030207813A1, “Retroviral protease inhibitor combinations” (priority 1995, published 2003).

The structures appear in SMILES notation. Converted amounts (≈) assume the structure as drawn.

In one assay the test system is SF162R (resistant strains selected from SF162 against Example 1). In words: Acute infectivity assay in PHA-activated donor lymphocytes, resistant isolate SF162R. The assay is classed as cell-based, HIV-1. The following applies: Human immunodeficiency virus 1, Lymphocyte, Table 1, read-out: Virus Isolate (EC50 ng/mL) SF162R. As for the experimental part:
Approximately 3×10^7 cells are activated for 48 hours with about 3-5 μg/ml PHA in RPMI continuing 10% fetal bovine serum and IL-2 (10 U/ml). Quantitated virus stocks are added to the activated lymphocyte suspension at a multiplicity of infection of about 0.001-0.01. The cell-virus suspension is incubated at 37° C. for 2 hours to allow virus absorption. The residual virus inoculum is removed by centrifugation and the cells are resuspended in RPMI containing 10% FBS and 10 U/ml IL-2. These infected cells are added to the test-article diluted in complete tissue culture medium from a stock (10 mg/ml) in DMSO in 96 well microtiter plates to give about 5×10^5 cells per well per 200 μl. Infected, untreated cells and cells treated with DMSO alone (0.1%) or either AZT or DDI were used as controls. The cultures were examined for syncytia formation on days 7 and 11 post-infection or the supernants tested for reverse transcriptase activity or p24 antigen.
RF represents the HIV-1 strain HIV-LRF and RFR represents a mixture of resistant strains obtained by selection of RF against the compound of Example 1. RFR comprises a mixture of viral strains having protease genotypes of G48V (14/40 clones); G48V, V82A (18/40 clones); G48V, L90S (2/40 clones); G48V, 154T, V82A (1/40 clones); G48M (1/40 clones); G48V, Q61H (1/40 clones); V13I, G48V (1/40 clones); G48V, F53L, V82A (1/40 clones); and G48V, V82A, C95Y (1/40 clones). RFR2 represents a mixture of resistant strains obtained by cloning RFR by three rounds of growth at limiting dilution. RFR2 comprises a mixture of viral strains having protease genotypes of G48V, V82A (13/15 clones); G17E, G48V, V82A (1/15 clones); and G48V, V82A, N37D, N88D (1/15 clones). RFRR represents a mixture of resistant strains obtained by selection of RF against the compounds of Examples 1 and 2 and then cloning by three rounds of growth at limiting dilution. RFRR comprises a mixture of viral strains having protease genotypes of G48V, 154T, L63P, V82A (7/9 clones); G48V, 154T, L63P, V82A, N88S (1/9 clones); and G48V, 154T, L63P, G73M, V82A (1/9 clones). SF162 represents the HIV-1 strain SF-162 and SF162R represents a mixture of resistant strains obtained by selection of SF162 against the compound of Example 1. SF162R comprises a mixture of viral strains having protease genotypes of M461, F53L, L63P, A71V, N88D (2/3 clones); and M46I, F53L, L63P, A71V, N88D, Q92R (1/3 clones). 89-959 represents the HIV-1 strain 89-959 and 89-959R represents a mixture of resistant strains obtained by selection of 89-959 against the compound of Example 2. 89-959R comprises a mixture of viral strains having protease genotypes of N88S (4/5 clones); and D25N, T26A, D30N, D37N, R41K, G73D, R87K, N88S (1/4 clones). NL4 represents the HIV-1 strain HIV-1NL4-3. NL4(G48V) represents a strain having a synthetically generated site-directed mutation in the protease from glycine to valine at amino acid position number 48. NL4(I84V) represents a strain having a synthetically generated site-directed mutation in the protease from isoleucine to valine at amino acid position number 84. NL4(R8Q,M46I) represents a strain having synthetically generated site-directed mutations in the protease from arginine to glutamine at amino acid position number 8 and methionine to isoleucine at amino acid position number 46. NL4(P22-538) represents a mixture of resistant strains obtained by selection of HIV-1NL4-3 against the compound of Example 10 after 22 passages comprising protease genotypes M46I, L63P, A71V, V82F, I84V (4/10); M46I, L63P, V82F, I84V (3/10); and M46I, A71V, V82F, I84V (3/10). NL4(P37-538) represents resistant strains obtained by selection of HIV-1NL4-3 against the compound of Example 10 after 37 passages comprising protease genotype M46I, L63P, A71V, 184A. NL4(538/524) represents resistant strains obtained by selection of NL4(P22-538) against the compound of Example 5 after 24 passages comprising protease genotype M46I, L63P, A71V, 184A. […]
Turning to `CNCC(=O)N[C@H](C(=O)N[C@@H](Cc1ccccc1)[C@H](O)CN(CCC(C)C)C(=O)NC(C)(C)C)C(C)(C)C` [Example 2, (2R,3S)-3-(N-methylaminoacetyl-L-tert-butylglycinyl)amino-1-(N-isoamyl-N-(tert-butylcarbamoyl))amino-4-phenyl-2-butanol], the EC50 stood at 6 ng/mL (≈ 0.0112 µM).

With `CC(C)(C)NC(=O)[C@@H]1CC2CCCC[C@@H]2CN1C[C@@H](O)[C@H](Cc1ccccc1)NC(=O)[C@H](CC(N)=O)NC(=O)c1ccc2ccccc2n1` (stereo in doubt) [Example 6, N-tert-Butyl decahydro-2-[2(R)-hydroxy-4-phenyl-3(S)-[[N-(2-quinolylcarbonyl)-L-asparaginyl]amino]butyl]-(4aR,8aS)-isoquinoline-3(S)-carboxamide], the EC50 stood at 11 ng/mL (≈ 0.0164 µM).

`CC(C)CN(C[C@@H](O)[C@H](Cc1ccccc1)NC(=O)[C@H](CC(N)=O)NC(=O)c1ccc2ccccc2n1)C(=O)NC(C)(C)C` (relative stereo) [Example 1, [1S-[1R*(R*),2S*]]-N^1-[3-[[[(1,1-dimethylethyl)amino]carbonyl])2-methylpropyl)amino]-2-hydroxy-1-(phenylmethyl)propyl]-2-[(2-quinolinylcarbonyl)amino]-butanediamide]: the EC50 is 443 ng/mL (≈ 0.733 µM).

Staying with this assay, now noted: Human immunodeficiency virus 1, Lymphocyte, Table 2, read-out: Virus Isolate (EC50 ng/mL) SF162R.
Regarding `CC(C)CN(C[C@@H](O)[C@H](Cc1ccccc1)NC(=O)[C@H](CC(N)=O)NC(=O)c1ccc2ccccc2n1)S(=O)(=O)NC(C)(C)C` [Example 8, N-[3-[N^2-[N^1-(1,1-dimethylethyl)aminosulfonyl]-N^2-(2-methylpropyl)amino]-2R-hydroxy-1S-(phenylmethyl)propyl]-2S-[(2-quinolinylcarbonyl)amino]butanediamide], the EC50 came to 98 ng/mL (≈ 0.153 µM).

`CC(C)CN(C[C@@H](O)[C@H](Cc1ccccc1)NC(=O)[C@H](CC(N)=O)NC(=O)c1ccc2ccccc2n1)C(=O)NC(C)(C)C` (relative stereo) [Example 1, [1S-[1R*(R*),2S*]]-N^1-[3-[[[(1,1-dimethylethyl)amino]carbonyl])2-methylpropyl)amino]-2-hydroxy-1-(phenylmethyl)propyl]-2-[(2-quinolinylcarbonyl)amino]-butanediamide]: the EC50 turned out to be 111 ng/mL (≈ 0.184 µM).

Take `CC(C)CCN(C[C@@H](O)[C@H](Cc1ccccc1)NC(=O)[C@H](CC(N)=O)NC(=O)c1ccc2ccccc2n1)C(=O)NC(C)(C)C` (relative stereo) [Example 7, [1S-[1R*(R*),2S*]]-N^1-[3-[[[(1,1-dimethylethyl)amino]carbonyl](3-methylbutyl)amino]-2-hydroxy-1-(phenylmethyl)propyl]-2-[(2-quinolinylcarbonyl)amino]-butanediamide]: the EC50 worked out at 108 ng/mL (≈ 0.175 µM).
